Where two headings read alike, the source gives them in different places.

The assay has as its target MHC-II allele DRB1*01:01 (Homo sapiens, UniProt P01903+P01911, A100R/D57E/F55L/F60I/F76Y/I96L/L162R/M171V/P40L/Q125E/R42F/V115G/Y59C). In kind it is binding.
Setting [1] is: DRB1*01:01, SF-high / SF-low assigned from REVEAL scores.

QPFQDIHTLAIRYAN [Peptide V5]: the “Affinity for MHC-II (subfamily by experimental affinity scores)” value (from here on “Affinity for MHC-II”) under setting [1] was “low affinity”. As to QTYHAIHTLAIRYAN [Peptide V14], the “Affinity for MHC-II” value under setting [1] is on record as “high affinity”. Same read-out and setting: the same measure for QTLQAIHTLAIRLAN [Peptide V11]: “high affinity”; for QPFPDIHTLAIRYAN [Peptide V3]: “low affinity”; for QTLLDIHTLAIRYAN [Peptide V1]: “low affinity”. For the sequence QGLKAIHTLAIRYAN [Peptide V10], under setting [1], the “Affinity for MHC-II” value is “high affinity”. Still for that read-out and setting: the same measure for QGLPAIHTLAIRYAN [Peptide V7]: “low affinity”; for QTLTAIHTLAIRYAN [Peptide V6]: “high affinity”. For the sequence QTLIAIHTLAIRYAN [Peptide P10], the “Affinity for MHC-II” value is “high affinity”. QMLHAIHTLAIRYAN [Peptide V16]: the “Affinity for MHC-II” value under setting [1] is “high affinity”.

In the case of QNHHAIHTLAIRYAN [Peptide V15], the “Affinity for MHC-II” value under setting [1] is given as “low affinity”.

For the origin of these results see publication PMC9986244, “Connection between MHC class II binding and aggregation propensity: The antigenic peptide 10 of Paracoccidioides brasiliensis as a benchmark study” (Computational and Structural Biotechnology Journal, 2023).
